Literature values, collected in patent US10881492B2, “Oral care compositions and regimens” (The Procter & Gamble Company, priority 2014, dated 2021).

Settings: concentration level where the cooling effect can be clearly recognized

SMILES | cooling threshold
CC(C)[C@@H]1CC[C@@H](C)C[C@@H]1O [Example 1-neomenthol, 1-neomenthol] | about 3,000 ppb
CC(C)[C@@H]1CC[C@@H](C)C[C@H]1O [L-menthol] | about 800 ppb
CC(C)[C@@H]1CC[C@@H](C)C[C@@H]1O [d-neomenthol] | about 25,000 ppb
